Results as given in ChEMBL document CHEMBL1130900, “Synthesis and structure-activity relationships of 2-pyridones: II. 8-(Fluoro-substituted pyrrolidinyl)-2-pyridones as antibacterial agents” (Bioorg Med Chem Lett, 1998).
≈ marks a conversion by molar mass, not a printed value.

What was measured:
Streptococcus pyogenes = test: Antibacterial activity against Streptococcus pyogenes EES61 was determined; assay type: functional
Klebsiella pneumoniae = test: Antibacterial activity against Klebsiella pneumoniae ATCC 8045 was determined; assay type: functional
Enterococcus faecium = test: Antibacterial activity against Enterococcus faecium ATCC 8043 was determined; assay type: functional
Escherichia coli [1] = test: Antibacterial activity against Escherichia coli JUHL was determined; assay type: functional
Klebsiella aerogenes = test: Antibacterial activity against Enterobacter aerogenes ATCC 13048 was determined; assay type: functional
Staphylococcus aureus [2] = test: Effective dose against Staphylococcus aureus NCTC-10649M in mice upon subcutaneous administration; assay type: functional; conditions: sc
Staphylococcus aureus [3] = test: Antibacterial activity against Staphylococcus aureus NCTC-10649M was determined; assay type: functional
DNA gyrase (bacterial) = test: Compound was tested for bacterial DNA gyrase activity; conditions: Bacteria
Streptococcus equinus = test: Antibacterial activity against Gram-positive Streptococcus bovis A5169 was determined; assay type: functional; conditions: Streptococcus equinus; read-out: MIC
Providencia stuartii = test: Antibacterial activity against Gram-negative Providencia Stuartii CMX640 was determined; assay type: functional
Staphylococcus aureus [4] = test: Antibacterial activity against Staphylococcus aureus A1775 was determined; assay type: functional
Staphylococcus aureus [5] = test: Effective dose against Staphylococcus aureus NCTC-10649M in mice upon peroral administration; assay type: functional; conditions: po
Pseudomonas aeruginosa = test: Antibacterial activity against Pseudomonas aeruginosa A-5007 was determined; assay type: functional
Escherichia coli [6] = test: Effective dose against Escherichia coli JUHL in mice upon subcutaneous administration; assay type: functional; conditions: sc
[7] = Compound was tested for its effective dose against Escherichia coli JUHL in mice upon peroral administration; assay type: functional; conditions: Mus musculus, po
Mus musculus [8] = test: Compound was tested for its effective dose against Staphylococcus aureus NCTC-10649M in mice upon subcutaneous administration; assay type: functional; conditions: sc
Mus musculus [9] = test: Compound was tested for its effective dose against Staphylococcus aureus NCTC-10649M in mice upon peroral administration; assay type: functional; conditions: po
[10] = Compound was evaluated for maximal plasma concentration in rat upon 5 mg/kg upon oral administration; assay type: ADME, organism-based; set-up: dose 5 mg/kg, route oral
[11] = Oral bioavailability in rat (dose 5 mg/kg); assay type: ADME, organism-based; conditions: in vivo
Mus musculus [12] = test: Compound was tested for its effective dose against Staphylococcus aureus NCTC-10649M in mice upon peroral administration; Mice were infected with 1000xLD50; assay type: functional; conditions: po
[13] = Streptococcus pyogenes, read-out: MIC
[14] = Klebsiella pneumoniae, ATCC 8045, read-out: MIC
[15] = Enterococcus faecium, ATCC 8043, read-out: MIC
[16] = Escherichia coli, read-out: MIC
[17] = Klebsiella aerogenes, ATCC 13048, read-out: MIC
[18] = Staphylococcus aureus, read-out: MIC
[19] = Providencia stuartii, read-out: MIC
[20] = Pseudomonas aeruginosa, read-out: MIC

Structure (SMILES) | MIC (Streptococcus pyogenes; [13]) [µg/mL] | MIC (Klebsiella pneumoniae; [14]) [µg/mL] | MIC (Enterococcus faecium; [15]) [µg/mL] | MIC (Escherichia coli [1]; [16]) [µg/mL] | MIC (Klebsiella aerogenes; [17]) [µg/mL] | ED50 (Staphylococcus aureus [2]) [mg/kg/day] | MIC (Staphylococcus aureus [3]; [18]) [µg/mL] | MIC (Streptococcus equinus) [µg/mL] | MIC (Providencia stuartii; [19]) [µg/mL] | MIC (Staphylococcus aureus [4]; [18]) [µg/mL] | ED50 (Staphylococcus aureus [5]) [mg/kg/day] | MIC (Pseudomonas aeruginosa; [20]) [µg/mL] | ED50 (Escherichia coli [6]) [mg/kg/day] | ED50 [7] [mg/kg/day] | Cmax [10] [ng/mL] | bioavailability [11] [%] | other results
Cc1c(N2C[C@@H](N)[C@H](C(F)(F)F)C2)c(F)cn2c(=O)c(C(=O)O)cc(C3CC3)c12 | 0.2 (≈ 0.484 µM) | 0.05 (≈ 0.121 µM) | 0.2 (≈ 0.484 µM) | 0.05 (≈ 0.121 µM) | 0.2 (≈ 0.484 µM) | 4.8 | 0.02 (≈ 0.0484 µM) | 0.39 (≈ 0.943 µM) | 3.1 (≈ 7.5 µM) | 1.56 (≈ 3.77 µM) | 25.4 | 0.78 (≈ 1.89 µM) |  |  |  |  | CC50 (DNA gyrase (bacterial)): 3.8 µg/mL (≈ 9.19 µM)
O=C(O)c1cn(C2CC2)c2cc(N3CCNCC3)c(F)cc2c1=O [CIPROFLOXACIN] |  | 0.02 (≈ 0.0604 µM) | 0.78 (≈ 2.35 µM) |  | 0.02 (≈ 0.0604 µM) |  | 0.39 (≈ 1.18 µM) | 0.78 (≈ 2.35 µM) | 1.56 (≈ 4.71 µM) | > 100 |  | 0.2 (≈ 0.604 µM) | 0.1 | 1 |  |  | ED50 (Mus musculus [8]): 4.1 mg/kg/day; ED50 (Mus musculus [9]): 28.2 mg/kg/day
Cc1c(N2CC[C@@H]([C@@H](N)C(F)(F)F)C2)c(F)cn2c(=O)c(C(=O)O)cc(C3CC3)c12 | 0.2 (≈ 0.468 µM) | 0.39 (≈ 0.912 µM) | 0.39 (≈ 0.912 µM) | 0.78 (≈ 1.82 µM) | 1.56 (≈ 3.65 µM) |  | 0.02 (≈ 0.0468 µM) | 0.39 (≈ 0.912 µM) | 6.2 (≈ 14.5 µM) | 0.78 (≈ 1.82 µM) |  | 6.2 (≈ 14.5 µM) |  |  |  |  | 
Cc1c(N2CCC(F)(CN)C2)c(F)cn2c(=O)c(C(=O)O)cc(C3CC3)c12 (configuration not stated) | 0.02 (≈ 0.053 µM) | 0.005 (≈ 0.0132 µM) | 0.02 (≈ 0.053 µM) | 0.02 (≈ 0.053 µM) | 0.05 (≈ 0.132 µM) |  | 0.01 (≈ 0.0265 µM) | 0.02 (≈ 0.053 µM) | 0.78 (≈ 2.07 µM) | 0.39 (≈ 1.03 µM) |  | 0.39 (≈ 1.03 µM) |  |  |  |  | 
Cc1c(N2C[C@@H](CF)[C@H](N)C2)c(F)cn2c(=O)c(C(=O)O)cc(C3CC3)c12 | 0.1 (≈ 0.265 µM) | 0.01 (≈ 0.0265 µM) | 0.1 (≈ 0.265 µM) | 0.02 (≈ 0.053 µM) | 0.05 (≈ 0.132 µM) | 1.2 |  | 0.1 (≈ 0.265 µM) | 0.78 (≈ 2.07 µM) | 1.56 (≈ 4.13 µM) |  | 0.39 (≈ 1.03 µM) | 0.8 |  |  |  | MIC (Staphylococcus aureus [3]): 0.02 µg/mL (≈ 0.053 µM)
Cc1c(N2CCC(F)C2)c(F)cn2c(=O)c(C(=O)O)cc(C3CC3)c12 (configuration not stated) | 0.1 (≈ 0.287 µM) | 0.1 (≈ 0.287 µM) | 0.05 (≈ 0.144 µM) | 0.1 (≈ 0.287 µM) | 0.39 (≈ 1.12 µM) | > 12 | 0.02 (≈ 0.0574 µM) | 0.1 (≈ 0.287 µM) | 0.78 (≈ 2.24 µM) | 1.56 (≈ 4.48 µM) | > 50 | 1.56 (≈ 4.48 µM) |  |  | 350 | 13 | CC50 (DNA gyrase (bacterial)): 0.6 µg/mL (≈ 1.72 µM)
Cc1c(N2CC[C@H]([C@@H](N)C(F)(F)F)C2)c(F)cn2c(=O)c(C(=O)O)cc(C3CC3)c12 | 0.2 (≈ 0.468 µM) | 0.2 (≈ 0.468 µM) | 0.1 (≈ 0.234 µM) | 0.2 (≈ 0.468 µM) | 0.78 (≈ 1.82 µM) | 11.9 | 0.005 (≈ 0.0117 µM) | 0.2 (≈ 0.468 µM) | 3.1 (≈ 7.25 µM) | 0.39 (≈ 0.912 µM) | 25 | 6.2 (≈ 14.5 µM) | > 4 | > 10 | 800 | 57 | 
Cc1c(N2C[C@@H](N)[C@@H](F)C2)c(F)cn2c(=O)c(C(=O)O)cc(C3CC3)c12 | 0.1 (≈ 0.275 µM) | 0.05 (≈ 0.138 µM) | 0.1 (≈ 0.275 µM) | 0.02 (≈ 0.055 µM) | 0.05 (≈ 0.138 µM) | 1.5 | 0.02 (≈ 0.055 µM) | 0.2 (≈ 0.55 µM) | 0.78 (≈ 2.15 µM) | 1.56 (≈ 4.29 µM) |  | 0.39 (≈ 1.07 µM) | 1.8 | 7.4 | 900 | 34 | ED50 (Mus musculus [12]): 7.7 mg/kg/day
Cc1c(N2C[C@@H](CF)[C@H](N)C2)c(F)cn2c(=O)c(C(=O)O)cc(C3CC3)c12 (racemic) |  |  |  |  |  |  |  |  |  |  |  |  |  |  |  |  | MIC (Streptococcus pyogenes): 0.1 µg/mL (≈ 0.265 µM); MIC (Klebsiella pneumoniae): 0.005 µg/mL (≈ 0.0132 µM); MIC (Enterococcus faecium): 0.1 µg/mL (≈ 0.265 µM); MIC (Escherichia coli [1]): 0.01 µg/mL (≈ 0.0265 µM); MIC (Klebsiella aerogenes): 0.05 µg/mL (≈ 0.132 µM); MIC (Staphylococcus aureus [3]): 0.2 µg/mL (≈ 0.53 µM); MIC (Providencia stuartii): 0.78 µg/mL (≈ 2.07 µM); MIC (Staphylococcus aureus [4]): 3.1 µg/mL (≈ 8.21 µM); MIC (Pseudomonas aeruginosa): 0.39 µg/mL (≈ 1.03 µM)
Cc1c(N2C[C@H](CF)[C@H](N)C2)c(F)cn2c(=O)c(C(=O)O)cc(C3CC3)c12 | 0.02 (≈ 0.053 µM) | 0.005 (≈ 0.0132 µM) | 0.1 (≈ 0.265 µM) | 0.005 (≈ 0.0132 µM) | 0.02 (≈ 0.053 µM) |  | 0.01 (≈ 0.0265 µM) |  | 0.39 (≈ 1.03 µM) | 1.56 (≈ 4.13 µM) |  | 0.2 (≈ 0.53 µM) |  |  |  |  | 
